Source: patent publication US20220151230A1, “SPECIFICALLY SUBSTITUTED 3-(2-HALOGEN-6-ALKYL-4-PROPINYLPHENYL)-3-PYRROLIN-2-ONES AND TO THE USE THEREOF AS HERBICIDES” (Bayer Aktiengesellschaft, priority 2019, published 2022)

How the values were obtained:
LOLRI [1] = assay: Post-emergence herbicidal effect against LOLRI; type: in vivo, Lolium rigidum; conditions: one-leaf stage, 80 g/ha, assessed visually after about 3 weeks vs untreated controls, 100% = plants have died
Procedure: (§1) Seeds of monocotyledonous and dicotyledonous weed and crop plants are laid out in sandy loam soil in wood-fiber pots, covered with soil and cultivated in a greenhouse under good growth conditions. 2 to 3 weeks after sowing, the test plants are treated at the one-leaf stage. The compounds of the invention, formulated in the form of wettable powders (WP) or as emulsion concentrates (EC), are then sprayed onto the green parts of the plants as aqueous suspension or emulsion at a water application rate equating to 600 to 800 l/ha with addition of 0.2% wetting agent. After the test plants have been left to stand in the greenhouse under optimal growth conditions for about 3 weeks, the action of the preparations is assessed visually in comparison to untreated controls (herbicidal action in percent (%): 100% activity=the plants have died, 0% activity=like control plants).

AVEFA [2] = assay: Post-emergence herbicidal effect against AVEFA; type: in vivo, Avena fatua; conditions: one-leaf stage, 80 g/ha, assessed visually after about 3 weeks vs untreated controls, 100% = plants have died
Procedure: as §1

HORMU = assay: Post-emergence herbicidal effect against HORMU; type: in vivo, Hordeum murinum; conditions: one-leaf stage, 80 g/ha, assessed visually after about 3 weeks vs untreated controls, 100% = plants have died
Procedure: as §1

SETVI [3] = assay: Post-emergence herbicidal effect against SETVI; type: in vivo, Setaria viridis; conditions: one-leaf stage, 80 g/ha, assessed visually after about 3 weeks vs untreated controls, 100% = plants have died
Procedure: as §1

ALOMY [4] = assay: Post-emergence herbicidal effect against ALOMY; type: in vivo, Alopecurus myosuroides; conditions: one-leaf stage, 80 g/ha, assessed visually after about 3 weeks vs untreated controls, 100% = plants have died
Procedure: as §1

ECHCG [5] = assay: Post-emergence herbicidal effect against ECHCG; type: in vivo, Echinochloa crus-galli; conditions: one-leaf stage, 80 g/ha, assessed visually after about 3 weeks vs untreated controls, 100% = plants have died
Procedure: as §1

DIGSA [6] = assay: Post-emergence herbicidal effect against DIGSA; type: in vivo, Digitaria sanguinalis; conditions: one-leaf stage, 80 g/ha, assessed visually after about 3 weeks vs untreated controls, 100% = plants have died
Procedure: as §1

DIGSA [7] = assay: Pre-emergence herbicidal effect against DIGSA; type: in vivo, Digitaria sanguinalis; conditions: 320 g/ha, scored visually after 3 weeks vs untreated controls, 100% = plants have died
From the text: (§2) Seeds of monocotyledonous and dicotyledonous weed plants and crop plants are laid out in sandy loam soil in wood-fiber pots and covered with soil. The compounds of the invention, formulated in the form of wettable powders (WP) or as emulsion concentrates (EC), are then applied to the surface of the covering soil as aqueous suspension or emulsion at a water application rate equating to 600 to 800 L/ha with addition of 0.2% wetting agent.
(§3) After the treatment, the pots are placed in a greenhouse and kept under good growth conditions for the trial plants. The damage to the test plants is scored visually after a test period of 3 weeks by comparison with untreated controls (herbicidal activity in percent (%): 100% activity=the plants have died, 0% activity=like control plants).

AVEFA [8] = assay: Pre-emergence herbicidal effect against AVEFA; type: in vivo, Avena fatua; conditions: 320 g/ha, scored visually after 3 weeks vs untreated controls, 100% = plants have died
From the text: as §2, §3

SETVI [9] = assay: Pre-emergence herbicidal effect against SETVI; type: in vivo, Setaria viridis; conditions: 320 g/ha, scored visually after 3 weeks vs untreated controls, 100% = plants have died
From the text: as §2, §3

VIOTR = assay: Pre-emergence herbicidal effect against VIOTR; type: in vivo, Viola tricolor; conditions: 320 g/ha, scored visually after 3 weeks vs untreated controls, 100% = plants have died
From the text: as §2, §3

ALOMY [10] = assay: Pre-emergence herbicidal effect against ALOMY; type: in vivo, Alopecurus myosuroides; conditions: 320 g/ha, scored visually after 3 weeks vs untreated controls, 100% = plants have died
From the text: as §2, §3

ECHCG [11] = assay: Pre-emergence herbicidal effect against ECHCG; type: in vivo, Echinochloa crus-galli; conditions: 320 g/ha, scored visually after 3 weeks vs untreated controls, 100% = plants have died
From the text: as §2, §3

LOLRI [12] = assay: Pre-emergence herbicidal effect against LOLRI; type: in vivo, Lolium rigidum; conditions: 320 g/ha, scored visually after 3 weeks vs untreated controls, 100% = plants have died
From the text: as §2, §3

Row | Compound | Post-emergence action [%] against LOLRI (LOLRI [1]) [%] | Post-emergence action [%] against AVEFA (AVEFA [2]) [%] | Post-emergence action [%] against HORMU (HORMU) [%] | Post-emergence action [%] against SETVI (SETVI [3]) [%] | Post-emergence action [%] against ALOMY (ALOMY [4]) [%] | Post-emergence action [%] against ECHCG (ECHCG [5]) [%] | Post-emergence action [%] against DIGSA (DIGSA [6]) [%] | Pre-emergence action [%] against DIGSA (DIGSA [7]) [%] | Pre-emergence action [%] against AVEFA (AVEFA [8]) [%] | Pre-emergence action [%] against SETVI (SETVI [9]) [%] | Pre-emergence action [%] against VIOTR (VIOTR) [%] | Pre-emergence action [%] against ALOMY (ALOMY [10]) [%] | Pre-emergence action [%] against ECHCG (ECHCG [11]) [%] | Pre-emergence action [%] against LOLRI (LOLRI [12]) [%]
1 | CC#Cc1cc(C)c(C2=C(OC(=O)OCC)C3(CCCC(OCCC)C3)NC2=O)c(Cl)c1 (stereo not shown) [Example Q5] | 100 | 100 | 100 | 100 | 100 | 100 | 100 | – | – | – | – | – | – | –
2 | CC#Cc1cc(C)c(C2=C(OC(=O)OCC)C3(CCC(CC)CC3)NC2=O)c(Cl)c1 (stereo not shown) [Example P3] | 100 | – | 100 | 100 | 100 | 100 | 100 | – | – | – | – | – | – | –
3 | CC#Cc1cc(C)c(C2=C(O)C3(CCC(OC(C)C)CC3)NC2=O)c(Cl)c1 (stereo not shown) [Example E13] | 100 | 100 | 100 | 100 | 100 | 100 | 100 | – | – | – | – | – | – | –
4 | CC#Cc1cc(C)c(C2=C(OC(=O)OCC)C3(CCC(OCC)CC3)NC2=O)c(Cl)c1 (stereo not shown) [Example P16] | 100 | 100 | 100 | 100 | 100 | 100 | 100 | – | – | – | – | – | – | –
5 | CC#Cc1cc(C)c(C2=C(O)C3(CCCC(OCCC)C3)NC2=O)c(Cl)c1 (stereo not shown) [Example D1, 3-[2-Chloro-6-methyl-4-(prop-1-yn-1-yl)phenyl]-4-hydroxy-7-propoxy-1-azaspiro[4.5]dec-3-en-2-one] | 100 | 100 | 100 | 100 | 100 | 100 | 100 | – | – | – | – | – | – | –
6 | C=CCOC1CCC2(CC1)NC(=O)C(c1c(C)cc(C#CC)cc1Cl)=C2O (stereo not shown) [Example E7] | 100 | 80 | 90 | 100 | 100 | 100 | 100 | – | – | – | – | – | – | –
7 | CC#Cc1cc(C)c(C2=C(O)C3(CCC(OC)CC3)NC2=O)c(Cl)c1 (stereo not shown) [Example E19] | 100 | 100 | 100 | 100 | 100 | 100 | 100 | – | – | – | – | – | – | –
8 | CC#Cc1cc(C)c(C2=C(OC(=O)OCC)C3(CCC(OC(C)C)CC3)NC2=O)c(Cl)c1 (stereo not shown) [Example P15] | 100 | 100 | 90 | 100 | 100 | 100 | 100 | – | – | – | – | – | – | –
9 | CC#Cc1cc(C)c(C2=C(OC(=O)OCC)C3(CCC(OC)CC3)NC2=O)c(Cl)c1 (stereo not shown) [Example P11] | 100 | 100 | 90 | 100 | 100 | 100 | 100 | – | – | – | – | – | – | –
10 | CC#Cc1cc(C)c(C2=C(O)C3(CCCC(OCC(C)C)C3)NC2=O)c(Cl)c1 (stereo not shown) [Example D9] | 90 | 90 | – | 100 | 100 | 100 | 90 | 100 | 100 | 100 | 100 | 100 | 100 | 100
11 | CC#Cc1cc(C)c(C2=C(OC(=O)C(C)C)C3(CCC(OC)CC3)NC2=O)c(Cl)c1 (stereo not shown) [Example P12] | 100 | 100 | 100 | 100 | 100 | 100 | 100 | – | – | – | – | – | – | –
12 | CC#Cc1cc(C)c(C2=C(OC(=O)OC)C3(CCC(OC)CC3)NC2=O)c(Cl)c1 (stereo not shown) [Example P10] | 100 | 100 | 100 | 100 | 100 | 100 | 100 | – | – | – | – | – | – | –
13 | CC#Cc1cc(C)c(C2=C(OC(=O)OCC)C3(CCC(OCCOC)CC3)NC2=O)c(Cl)c1 (stereo not shown) [Example P17] | 100 | 100 | – | 100 | 100 | 100 | 100 | 100 | 100 | 100 | 100 | 100 | 100 | 100
14 | CC#Cc1cc(C)c(C2=C(O)C3(CCC(CC)CC3)NC2=O)c(Cl)c1 (stereo not shown) [Example E1] | 100 | 100 | 100 | 100 | 100 | 100 | 100 | – | – | – | – | – | – | –
15 | CC#Cc1cc(C)c(C2=C(O)C3(CCC(OC)CC3)NC2=O)c(Br)c1 (stereo not shown) [Example E21] | 100 | 90 | – | 100 | 100 | 100 | 100 | 100 | 100 | 100 | 100 | 100 | 100 | 100
16 | CC#Cc1cc(C)c(C2=C(O)C3(CCC(OCC)CC3)NC2=O)c(Cl)c1 (stereo not shown) [Example E10] | 100 | 100 | 100 | 100 | 100 | 100 | 100 | – | – | – | – | – | – | –
17 | CC#Cc1cc(C)c(C2=C(O)C3(CCCC(OCCOC)C3)NC2=O)c(Br)c1 (stereo not shown) [Example D6] | 100 | 100 | – | 100 | 100 | 100 | 100 | 100 | 100 | 100 | 100 | 100 | 100 | 100
